In patent US20210040062A1, “AZOLE-SUBSTITUTED PYRIDINE COMPOUND” (TAISHO PHARMACEUTICAL CO., LTD., priority 2016, published 2021):

Columns and labels:
human CYP4A11 = biological target: T1, human CYP4A11 (Homo sapiens, UniProt Q02928); experiment: CYP4A11 inhibition test (Test Example 1); type: biochemical; settings: Escherichia coli membrane fraction expressing human CYP4A11, 60 μM luciferine derivative, room temperature 60 minutes, luminescence
T1 construct: host or cells: Escherichia coli (membrane fraction)
T1 sequence (Q02928 5-519): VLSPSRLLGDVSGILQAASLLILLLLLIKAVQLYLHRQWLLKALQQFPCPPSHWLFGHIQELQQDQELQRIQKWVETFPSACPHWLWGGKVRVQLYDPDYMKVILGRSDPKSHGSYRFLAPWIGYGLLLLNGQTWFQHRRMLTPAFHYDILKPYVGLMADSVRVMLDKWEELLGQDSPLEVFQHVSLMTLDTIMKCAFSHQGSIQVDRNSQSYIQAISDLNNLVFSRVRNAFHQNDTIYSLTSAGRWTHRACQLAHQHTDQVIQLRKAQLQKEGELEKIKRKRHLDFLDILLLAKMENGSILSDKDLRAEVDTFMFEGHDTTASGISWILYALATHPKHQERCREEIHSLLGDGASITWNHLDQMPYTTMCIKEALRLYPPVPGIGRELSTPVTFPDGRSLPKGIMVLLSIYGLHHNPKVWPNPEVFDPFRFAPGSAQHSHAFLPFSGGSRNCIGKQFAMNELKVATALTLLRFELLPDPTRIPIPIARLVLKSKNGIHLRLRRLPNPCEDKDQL
In short: (§1)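 E. coli membranes expressing human enzyme (100 μg/mL protein) with luciferin-derivative substrate, 60 min at room temperature, then luminescence read. CYP4F2: 50 mM KPO4 pH 7.4, 2.5 μM substrate, 1 mM NADPH. CYP4A11: 100 mM Tris-HCl pH 7.5, 60 μM substrate, NADP+/glucose 6-phosphate regenerating system.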

human CYP4F2 = biological target: T2, human CYP4F2 (Homo sapiens, UniProt P78329); experiment: CYP4F2 inhibition test (Test Example 1); type: biochemical; settings: Escherichia coli membrane fraction expressing human CYP4F2, 2.5 μM luciferine derivative, room temperature 60 minutes, luminescence
T2 construct: host or cells: Escherichia coli (membrane fraction)
T2 sequence (P78329 5-520): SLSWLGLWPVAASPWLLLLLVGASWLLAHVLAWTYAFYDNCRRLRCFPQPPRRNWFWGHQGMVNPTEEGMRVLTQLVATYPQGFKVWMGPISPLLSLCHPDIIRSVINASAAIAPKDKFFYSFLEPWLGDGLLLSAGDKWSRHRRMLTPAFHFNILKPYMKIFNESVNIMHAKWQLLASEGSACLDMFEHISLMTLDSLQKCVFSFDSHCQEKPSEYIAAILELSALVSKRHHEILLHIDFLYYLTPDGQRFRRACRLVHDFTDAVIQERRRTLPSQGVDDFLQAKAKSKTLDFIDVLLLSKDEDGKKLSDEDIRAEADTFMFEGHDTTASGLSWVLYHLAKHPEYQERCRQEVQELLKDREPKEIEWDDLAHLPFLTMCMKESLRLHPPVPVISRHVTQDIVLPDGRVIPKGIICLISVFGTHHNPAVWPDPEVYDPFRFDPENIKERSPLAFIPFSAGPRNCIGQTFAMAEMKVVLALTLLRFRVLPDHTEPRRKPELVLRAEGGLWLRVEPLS
In short: as §1

SMILES	IC50 (human CYP4A11) [nM]	IC50 (human CYP4F2) [nM]
CC(CO)(CO)C(=O)N1CCC[C@@H](COc2ccc(-c3ccn[nH]3)nc2)C1 [Example 4-4]	310	4500
CC(=O)N1CCCC1C(=O)N1CCC[C@@H](COc2ccc(-c3ccn[nH]3)nc2)C1 (stereo partly shown) [Example 3-23]	3200	4700
CC(C)NC(=O)N1CCC(CCOc2ccc(-c3ccn[nH]3)nc2)CC1 [Example 9-3]	360	150
O=C(CS(=O)(=O)c1ccccc1)N1CCC[C@@H](COc2ccc(-c3ccn[nH]3)nc2)C1 [Example 3-30]	110	250
CC(C)(C)OC(=O)NCCCC(=O)N1CCC[C@@H](COc2ccc(-c3ccn[nH]3)nc2)C1 [Example 3-44]	100	18
CC(=O)NCCC(=O)N1CCC[C@@H](COc2ccc(-c3ccn[nH]3)nc2)C1 [Example 1-36]	640	680
O=C(CN1CCCOC1=O)N1CCC[C@@H](COc2ccc(-c3ccn[nH]3)nc2)C1 [Example 3-39]	3400	3500
Cc1cccc(COc2ccc(-c3ccn[nH]3)nc2)c1 [Reference Example 54-1, 5-[(3-Methylphenyl)methoxy]-2-(1H-pyrazol-5-yl)pyridine]	340	88
CC(C)(O)CC(=O)N1CCC[C@@H](COc2ccc(-c3ccn[nH]3)nc2)C1 [Example 3-35]	1300	790
O=C(CC1CCOCC1)N1CCC[C@@H](COc2ccc(-c3ccn[nH]3)nc2)C1 [Example 3-33]	2500	220
CC(=O)N1CCC[C@H](COc2ccc(-c3ccn[nH]3)nc2)C1 [Example 1-11]	220	180
O=C(Cn1ccccc1=O)N1CCC[C@@H](COc2ccc(-c3ccn[nH]3)nc2)C1 [Example 3-28]	2400	3200
CC(C)OC(=O)N1CC(S(=O)(=O)N2CCC[C@@H](COc3ccc(-c4ccn[nH]4)nc3)C2)C1 [Example 1-17]	51	6.3
CC(C)CC(=O)N1CC(S(=O)(=O)N2CCC[C@H](COc3ccc(-c4ccn[nH]4)nc3)C2)C1 [Example 1-19]	190	3.7
O=C(C1CCC1)N1CCC(COc2ccc(-c3ccn[nH]3)nc2)CC1 [Example 2-3]	360	76
O=C(CC1CCOCC1)NCCC(=O)N1CCC[C@@H](COc2ccc(-c3ccn[nH]3)nc2)C1 [Example 4-6]	340	77
CCOC(=O)N[C@H]1C[C@@H](C(=O)N2CCC[C@@H](COc3ccc(-c4ccn[nH]4)nc3)C2)C1 [Example 1-39]	270	11
O=C(c1ccccc1)N1CCC(CCOc2ccc(-c3ccn[nH]3)nc2)CC1 [Example 4-3]	270	210
O=C(CC1CCCCC1)N1CCC[C@@H](COc2ccc(-c3ccn[nH]3)nc2)C1 [Example 3-32]	460	15
C[C@@H](CC(=O)N1CCC[C@@H](COc2ccc(-c3ccn[nH]3)nc2)C1)NC(=O)OC(C)(C)C [Example 2-14]	77	29
O=C(C1CCOCC1)N1CCC(COc2ccc(-c3ccn[nH]3)nc2)CC1 [Example 2-8]	5700	290
CC(C)(C)OC(=O)N1CC(C(=O)N2CCC[C@@H](COc3ccc(-c4ccn[nH]4)nc3)C2)C1 [Example 3-46]	290	23
NC(=O)COc1ccc(C(=O)N2CCC[C@@H](COc3ccc(-c4ccn[nH]4)nc3)C2)cc1 [Example 3-25]	560	110
O=C(C1CC1)N1CCC(COc2ccc(-c3ccn[nH]3)nc2)CC1 [Example 1-5]	530	110
CC(=O)N(C)[C@H]1C[C@H](COc2ccc(-c3ccn[nH]3)nc2)C1 [Example 17-1-2, N-Methyl-N-[trans-3-({[6-(1H-pyrazol-5-yl)pyridin-3-yl]oxy}methyl)cyclobutyl]acetamide]	2700	19

Further lines, results first:

IC50 (human CYP4A11) [nM]	IC50 (human CYP4F2) [nM]	SMILES
260	11	O=S(=O)(CCCN1CCOCC1)c1cccc(COc2ccc(-c3ccn[nH]3)nc2)c1 [Example 14-10]
520	1600	CS(=O)(=O)c1cccc(COc2ccc(-c3cnsc3)nc2)c1 [Example 41-3]
440	2600	COc1cn[nH]c1-c1ccc(OCc2cccc(S(C)(=O)=O)c2)cn1 [Example 24-8]
660	130	c1cc(COc2ccc(-c3ccn[nH]3)nc2)cc(C2CCCCC2)c1 [53-5]
10000	790	CC(=O)N1CC(CCOc2ccc(-c3ccn[nH]3)nc2)C1 [Example 16-2, 1-[3-(2-{[6-(1H-Pyrazol-5-yl)pyridin-3-yl]oxy}ethyl)azetidin-1-yl]ethan-1-one]
1600	240	CC(=O)N1CC[C@H](COc2ccc(-c3ccn[nH]3)nc2)C1 [Example 20-2]
120	58	O=S(=O)(C1CC1)N1CC[C@@H](COc2cnc(-c3ccn[nH]3)c(F)c2)C1 [Example 10-19]
170	19	Clc1ccc(COc2ccc(-c3ccn[nH]3)nc2)cc1Cl [54-7]
67	88	FC(F)(F)c1cccc(COc2ccc(-c3ccn[nH]3)nc2)c1 [Example 25-29]
620	46	Nc1cccc(COc2ccc(-c3ccn[nH]3)nc2)c1 [Example 19-1, 3-({[6-(1H-Pyrazol-5-yl)pyridin-3-yl]oxy}methyl)aniline]
1300	860	CS(=O)(=O)c1cncc(COc2ccc(-c3ccn[nH]3)nc2)c1 [Example 13-17]
390	340	CC(C)S(=O)(=O)N1CCC(CCOc2ccc(-c3ccn[nH]3)nc2)CC1 [Example 10-25]
24	73	CN(C)S(=O)(=O)N1CCC[C@@H](COc2ccc(-c3ccn[nH]3)nc2)C1 [Example 10-5]
19	38	O=S(=O)(C1CC1)N1CCC[C@@H](COc2cnc(-c3ccn[nH]3)c(F)c2)C1 [Example 10-17]
650	9.3	Clc1ccc(COc2ccc(-c3ccn[nH]3)nc2)cc1 [54-21]
64	25	COC(=O)N1CCC(CCOc2cnc(-c3ccn[nH]3)c(F)c2)CC1 [Example 24-6]
65	140	CS(=O)(=O)c1cccc(COc2ccc(-c3ccns3)nc2)c1 [Example 42-2]
3900	7500	CS(=O)(=O)c1cccc(COc2ccc(-c3[nH]ncc3C(F)F)nc2)c1 [Example 46-1, 2-[4-(Difluoromethyl)-1H-pyrazol-5-yl]-5-[(3-methylsulfonylphenyl)methoxy]pyridine]
> 50000	15000	CS(=O)(=O)c1cccc(COc2ccc(-c3[nH]ncc3C(=O)NC3CC3)nc2)c1 [Example 47-1, N-Cyclopropyl-5-{5-[(3-methylsulfonylphenyl)methoxy]pyridin-2-yl}-1H-pyrazole-4-carboxamide]
120	470	CS(=O)(=O)c1cccc(COc2ccc(-c3cn[nH]c3)nc2)c1 [Example 41-1, 5-[(3-Methylsulfonylphenyl)methoxy]-2-(1H-pyrazol-4-yl)pyridine]
480	170	Fc1cc(COc2ccc(-c3ccn[nH]3)nc2)cc(F)c1F [54-13]
> 50000	5.1	C(=C\c1ccc(COc2ccc(-c3ccn[nH]3)nc2)cc1)/c1ccccc1 [Example 25-28]
490	890	c1cc(-c2ccc(OCCC3CCOCC3)cn2)[nH]n1 [Example 13-16]
130	23	Clc1cccc(COc2ccc(-c3ccn[nH]3)nc2)c1 [54-18]
550	1800	CS(=O)(=O)c1cccc(COc2ccc(-c3[nH]ncc3CO)nc2)c1 [Example 49-1, (5-{5-[(3-Methylsulfonylphenyl)methoxy]pyridin-2-yl}-1H-pyrazol-4-yl)methanol]
